According to publication PMC9404989, “Design and Evaluation of Short Bovine Lactoferrin-Derived Antimicrobial Peptides against Multidrug-Resistant Enterococcus faecium” (Antibiotics, 2022):
Entries after “also recorded” stand apart in the source; their conditions may differ. No end group written: not given here.

Legend:
E. faecium WC176 = test: organism not typed; type: cell-based, Enterococcus faecium; settings: WC176, 18 h
Procedure: (§1) To determine the MICs of peptides, we used the broth microdilution method described by the Clinical and Laboratory Standards Institute. We made serial dilutions of 10× concentration (10 µL) for each peptide in duplicates in 96-well plates (Cat No. 3595, Corning, New York, NY, USA). We added 90 µL of logarithmic-phase bacteria at 5 × 10^5 CFU/mL (in BHI media) to the peptides and then incubated the plates at 37 °C for 18 h. We measured the OD600 absorbance readings using the Spectra Max i3x spectrophotometer (Molecular Devices, San Jose, CA, USA) and determined the MIC as the peptide concentration that inhibits the growth of bacteria.

[1] = HPLC retention time on C18 reverse-phase column; type: physicochemical
Excerpt: Table 1 Physical parameters and the minimal inhibitory concentration (µg/mL) of designed peptides against E. faecium. | column: rT ^f (min)

[2] = system: E. faecium strain C68 persister cells; test: Persister cell time-kill assay; type: cell-based, Enterococcus faecium
Procedure: (§2) For the generation of antibiotic-induced persister cells, we followed an established protocol. In brief, 25 mL of E. faecium strain C68 culture was grown to the stationary phase and then treated with gentamicin at 400 μg/mL for 5 h. We then disposed of the antibiotic-containing media and regrew the bacteria for another 18 h in fresh media. To produce stable persister cells, we repeated the cycle of antibiotic exposure and regrowth five times. The bacteria culture was then washed with the same volume of phosphate-buffered saline (PBS) 3× times and adjusted to 1 × 10^7 CFU/mL in PBS. For killing kinetics of the persister cells, we added 1 mL of the cell suspension to the wells of a 2 mL deep well assay block (Cat No. 3960, Corning, NY, USA) containing 10× MICs of 5L and 6L and incubated them at 37 °C, with shaking at 225 rpm. At specific times (0, 15, 30, 60, and 120 min), we collected 20 μL samples, diluted them serially, and then plated them on tryptic soy agar (TSA) (BD Difco, Franklin Lakes, NJ, USA) plates for 18 h at 37 °C for colony counting. We performed the experiments in duplicate. As a comparison, we prepared the exponential cells of E. faecium strain C68 in PBS and analyzed their killing kinetics in the same manner as described for persister cells.

[3] = system: E. faecium strain C68 exponential cells; test: Exponential cell time-kill assay; type: cell-based, Enterococcus faecium; settings: 10× MIC, PBS
Procedure: as §2

[4] = system: E. faecium strain C68 persister and exponential cells; test: SYTOX Green membrane permeability assay; type: cell-based, Enterococcus faecium; settings: for SYTOX membrane permeabilization of exponential cells: 16 µg/mL; for SYTOX membrane permeabilization of persister cells: peptides at 16 µg/mL, fluorescence, 1 h
Procedure: We generated E. faecium strain C68 persister cells (described in the above section) and diluted them in PBS to OD600 = 0.2. We added SYTOX Green (Molecular Probes, Life Technologies, Eugene, OR, USA) to the diluted persister suspension to a final concentration of 5 μM and incubated them for 30 min at room temperature in the dark. We added 90 µL of the dye/bacteria mixture to 10 μL of serially diluted 10× peptide concentration in a 96-well black, clear-bottom plate (Cat No. 3904, Corning, NY, USA) and recorded fluorescence on a SpectraMax i3x (Molecular Devices, San Jose, CA, USA) with excitation and emission wavelengths of 485 nm and 525 nm, respectively, for 1 h at room temperature. For comparison, we also conducted membrane permeability assays using exponential cells and followed similar protocol as described for persister cells.

E. faecium strain C68 = test: ATP release assay (luciferase); type: cell-based, Enterococcus faecium; settings: 32 µg/mL, 37 °C, 30 min
Procedure: To determine the ATP leakage potential of the peptides, we employed a luciferase-based assay detailed in [32]. In brief, we washed the exponential phase of E. faecium strain C68 bacteria three times with PBS (pH 7.4) and adjusted it to OD600 = 0.4 in PBS. Following treatment of the bacteria with 32 µg/mL of 5L and 6L peptides at 37 °C for 30 min, we centrifuged the cells at 14,000 rpm for 5 min. We transferred 50 µL of the supernatant of each sample to each well of black, clear-bottom, 96-well plates (Cat No. 3904, Corning, New York, NY, USA) containing 50 µL of BacTiter-Glo reagent (Promega, Madison, WI, USA) and measured plate luminescence after 5 min of incubation at room temperature in the dark with a SpectraMax i3x reader (Molecular Devices, San Jose, CA, USA).

[5] = system: E. faecium strain C68 on porcine skin; test: Ex vivo porcine skin infection assay; parameters: species or system Enterococcus faecium; settings: 1 × 10^6 CFU, 4 h treatment
Excerpt: We evaluated the efficacy of designed lactoferrin AMPs in an ex vivo porcine skin model previously described with minor modifications. We first cleaned the shaved porcine skin (Fisher Scientific, Hampton, NH, USA) with 70% ethanol and then water, and glued polyethylene tubing (5 mm) (Nalgene VWR 228-0170, Radnor, PA, USA) to the skin samples with cyanoacrylate glue (Fisher Scientific, Hampton, NH, USA). Using disposable razors, we cut each piece of skin glued to the tube and inserted it into a 12-well tissue culture plate (Falcon, Cat No. 353182). We infected each skin with 1 × 10^6 CFU of exponential or persister E. faecium strain C68 cells in a total volume of 10 µL. Following an incubation of 1 h at 37 °C, we treated the skin with 50 µL with 5L and 6L at concentrations of 10× or 1× MIC. After an additional 4 h of incubation at 37 °C, we washed each tubing well with 250 µL of PBS (pH 7.4) containing 0.05% Triton X-100 to remove bacteria. After serially diluting the bacterial sample, we counted their CFUs.

[6] = system: drug-resistant E. faecium clinical isolates; type: cell-based, Enterococcus faecium; settings: strains D14, D24, D25, D29, C68 and WC176
Procedure: as §1

Row | Substance | MIC WC176 (E. faecium WC176) [µg/mL] | rT (HPLC retention time) [1] [min] | reduction of viable persister cells ([2]; 10× MIC (40 µg/mL), 1 × 10^7 CFU, PBS, within 120 min) [logs] | time to eliminate all 10^7 CFU of exponential cells [3] [min] | SYTOX membrane permeabilization of exponential cells [4] | SYTOX membrane permeabilization of persister cells [4] | ATP leakage (luminescence) (E. faecium strain C68) | bacterial load reduction, exponential cells, 1× MIC [5] | bacterial load reduction, persister cells, 1× MIC [5] [log] | bacterial load, exponential cells, 10× MIC [5] | bacterial load, persister cells, 10× MIC [5] | MIC range against clinical isolates of E. faecium [6] [µg/mL] | time to eliminate all persister cells ([2]; 40 µg/mL, 1 × 10^7 persister cells) [min]
1 | RRWLWLRRWLWR-NH2 [Peptide 5L] | 8 | 17.522 | 3 | 120 | enhanced membrane permeabilization | time-dependent fluorescent increment | increased luminescence levels | 1 log | 1 | effectively eliminated almost all exponential cells | effectively eliminated all; also recorded: completely eliminated persister cells | 4 to 16 | –
2 | RRWLWRLRWLWR-NH2 [Peptide 6L] | 8 | 18.603 | – | 60 | enhanced membrane permeabilization | time-dependent fluorescent increment | increased luminescence levels | 1.2 logs | 1 | effectively eliminated almost all exponential cells | completely eliminated persister cells | 4 to 16 | ≤ 60
